Experimental data published in patent US11478471B2, “Methods and compositions for treating diabetes, metabolic syndrome and other conditions” (priority 2005, dated 2022).
Entries after “also recorded” stand apart in the source; their conditions may differ.

Assays:
[1] = Toxicokinetics of racemic ketoconazole in another 28-day dog study (b); conditions: dogs; for Cmax / AUC(0-t) / concentration at 0 h / concentration at 1 h / concentration at 2 h / concentration at 4 h / concentration at 8 h / concentration at 12 h / Tmax: beagle, dog, plasma, po; for AUC(0-t): AUC(0-12), footnote: AUC data is for 0-24 h; for concentration at 0 h / concentration at 1 h / concentration at 2 h / concentration at 4 h / concentration at 8 h / concentration at 12 h: Drug concentration in plasma; for Tmax: Tmax Range
Text: Two groups of three male and three female dogs per group were studied.
Toxicokinetic samples were collected on Day 1 and during Weeks 2 and 4. […] For the following Table: *Days of treatment.

rat hepatocytes = conditions: cultured rat hepatocytes, four hours exposure; cited from earlier work
[2] = female, 10 mg/kg, study b, powder, 10 mg/kg oral, day 1, F
[3] = female, 10 mg/kg, study b, powder, 10 mg/kg oral, day 28, F
[4] = female, 40 mg/kg, study b, powder, 40 mg/kg oral, day 1, F
[5] = female, 40 mg/kg, study b, powder, dose and days not printed in the row (40 mg/kg, day 28), F
[6] = female, 40 mg/kg, study b, powder, 40 mg/kg oral, day 28, F
[7] = male, 10 mg/kg, study b, powder, 10 mg/kg oral, day 1, M
[8] = male, 10 mg/kg, study b, powder, 10 mg/kg oral, day 28, M
[9] = male, 40 mg/kg, study b, powder, 40 mg/kg oral, day 1, M
[10] = male, 40 mg/kg, study b, powder, dose and days not printed in the row (40 mg/kg, day 28), M
[11] = male, 40 mg/kg, study b, powder, 40 mg/kg oral, day 28, M

CC(=O)N1CCN(c2ccc(OCC3COC(Cn4ccnc4)(c4ccc(Cl)cc4Cl)O3)cc2)CC1 (racemic) [Racemic ketoconazole, 1-acetyl-4-[4-[[2-(2,4-dichlorophenyl)-2-[(1H-imidazol-1-yl)-methyl]-1,3-dioxolan-4-yl]methoxy]phenyl]piperazine]
Cmax ([1]; both, 10 mg/kg, 10 mg/kg, day 28): 7520 to 9200 ng/mL
Cmax ([1]; both, 40 mg/kg, 40 mg/kg, day 28): 42800 to 46800 ng/mL
change of exposure (AUC, Cmax) with repeat dosing, day 28 vs day 1 ([1]; daily oral dosing for 28 days): AUC determined after a single dose was significantly reduced in comparison to the AUC determined after 28 daily doses; also recorded: significant increase between day 1 and day 28
AUC(0-t) [1, 2]: 6730 ng·h/mL
AUC(0-t) [1, 3]: 33100 ng·h/mL
Cmax [1, 2]: 1580 ng/mL
Cmax [1, 3]: 7520 ng/mL
concentration at 0 h [1, 2]: < 250 ng/mL
concentration at 1 h [1, 2]: 1300 ng/mL
concentration at 2 h [1, 2]: 1230 ng/mL
concentration at 4 h [1, 2]: 590 ng/mL
concentration at 8 h [1, 2]: < 250 ng/mL
concentration at 12 h [1, 2]: < 250 ng/mL
concentration at 0 h [1, 3]: < 250 ng/mL
concentration at 1 h [1, 3]: 7280 ng/mL
concentration at 2 h [1, 3]: 7210 ng/mL
concentration at 4 h [1, 3]: 4390 ng/mL
concentration at 8 h [1, 3]: 850 ng/mL
concentration at 12 h [1, 3]: < 250 ng/mL
Tmax [1, 2]: 1 to 8 h
Tmax [1, 3]: 1 to 2 h
AUC(0-t) [1, 4]: 42900 ng·h/mL
AUC(0-t) [1, 5]: 639000 ng·h/mL
Cmax [1, 4]: 6230 ng/mL
Cmax [1, 5]: 42800 ng/mL
concentration at 0 h [1, 4]: < 250 ng/mL
concentration at 1 h [1, 4]: 5650 ng/mL
concentration at 2 h [1, 4]: 5760 ng/mL
concentration at 4 h [1, 4]: 3300 ng/mL
concentration at 8 h [1, 4]: 1840 ng/mL
concentration at 12 h [1, 4]: 1550 ng/mL
concentration at 0 h [1, 6]: 12800 ng/mL
concentration at 1 h [1, 6]: 12300 ng/mL
concentration at 2 h [1, 6]: 31600 ng/mL
concentration at 4 h [1, 6]: 38600 ng/mL
concentration at 8 h [1, 6]: 40400 ng/mL
concentration at 12 h [1, 6]: 29900 ng/mL
Tmax [1, 4]: 2 to 12 h
Tmax [1, 5]: 4 to 8 h
AUC(0-t) [1, 7]: 9010 ng·h/mL
AUC(0-t) [1, 8]: 44200 ng·h/mL
Cmax [1, 7]: 1430 ng/mL
Cmax [1, 8]: 9200 ng/mL
concentration at 0 h [1, 7]: < 250 ng/mL
concentration at 1 h [1, 7]: 380 ng/mL
concentration at 2 h [1, 7]: 620 ng/mL
concentration at 4 h [1, 7]: 1180 ng/mL
concentration at 8 h [1, 7]: 330 ng/mL
concentration at 12 h [1, 7]: < 250 ng/mL
concentration at 0 h [1, 8]: < 250 ng/mL
concentration at 1 h [1, 8]: 7530 ng/mL
concentration at 2 h [1, 8]: 8630 ng/mL
concentration at 4 h [1, 8]: 6200 ng/mL
concentration at 8 h [1, 8]: 1440 ng/mL
concentration at 12 h [1, 8]: 430 ng/mL
Tmax [1, 7]: 2 to 4 h
Tmax [1, 8]: 1 to 2 h
AUC(0-t) [1, 9]: 180000 ng·h/mL
AUC(0-t) [1, 10]: 542000 ng·h/mL
Cmax [1, 9]: 23300 ng/mL
Cmax [1, 10]: 46800 ng/mL
concentration at 0 h [1, 9]: < 250 ng/mL
concentration at 1 h [1, 9]: 10300 ng/mL
concentration at 2 h [1, 9]: 14600 ng/mL
concentration at 4 h [1, 9]: 23100 ng/mL
concentration at 8 h [1, 9]: 10100 ng/mL
concentration at 12 h [1, 9]: 6700 ng/mL
concentration at 0 h [1, 11]: 3970 ng/mL
concentration at 1 h [1, 11]: 11900 ng/mL
concentration at 2 h [1, 11]: 24600 ng/mL
concentration at 4 h [1, 11]: 32700 ng/mL
concentration at 8 h [1, 11]: 46800 ng/mL
concentration at 12 h [1, 11]: 28300 ng/mL
Tmax [1, 9]: 2 to 4 h
Tmax [1, 10]: 8 h
concentrations with no detectable effect on LDH release (rat hepatocytes): below 75 microM
